{"source": "patent US9055743B2", "about": "“Alpha, beta-unsaturated imines” (BAYER INTELLECTUAL PROPERTY GMBH, priority 2010, dated 2015)", "assay_type_in_all_cases": "in vivo", "key": {"Aedes aegypti": {"system": "Aedes aegypti", "test": "Aedes test (AEDSAE surface treatment)", "conditions": "for knock-down activity: 100 mg/m^2, two hours after contact, exposition 30 minutes", "experimental": "Aedes Test (AEDSAE Surface Treatment)\n(§1) To produce a suitable preparation of active compound, the active compound is dissolved in acetone (2 mg/ml). The active compound preparation is pipetted onto a glazed tile and, after drying, adult mosquitoes of the species Aedes aegypti are placed onto the treated tile. The exposition time is 30 minutes.\n(§2) Two hours after contact to the treated surface, the knock-down proportion of the test animals in % is determined.\n24 hours after contact to the treated surface, the mortality in % is determined Here, 100% means that all mosquitoes have been killed; 0% means that none of the mosquitoes has been killed."}, "[1]": {"system": "Anopheles gambiae (homocygus kdr)", "test": "Anopheles test (ANPHGB surface treatment)", "conditions": "100 mg/m^2, two hours after contact, exposition 30 minutes", "experimental": "Anopheles Test (ANPHGB Surface Treatment) Solvent: Acetone\nas §1, with “Anopheles gambiae (homocygus kdr)” for “Aedes aegypti”\nas §2\n24 hours after contact to the treated surface, the mortality in % is determined. Here, 100% means that all mosquitoes have been killed; 0% means that none of the mosquitoes has been killed."}, "[2]": {"system": "caterpillars of the army worm (Spodoptera frugiperda)", "test": "Spodoptera frugiperda test (SPODFR spray treatment)", "conditions": "500 g/ha, spray, after 7 days", "experimental": "Spodoptera frugiperda Test (SPODFR Spray Treatment) Solvents: 78.0 parts by weight of acetone • • 1.5 parts by weight of dimethylformamide Emulsifier: 0.5 part by weight of alkylaryl polyglycol ether\n(§3) To produce a suitable preparation of active compound, 1 part by weight of active compound is mixed with the stated amounts of solvents and emulsifier, and the concentrate is diluted with emulsifier-containing water to the desired concentration.\nDiscs of maize leaves (Zea mays) are sprayed with an active compound preparation of the desired concentration and, after drying, populated with caterpillars of the army worm (Spodoptera frugiperda) besetzt.\nAfter 7 days, the activity in % is determined. 100% means that all caterpillars have been killed; 0% means that none of the caterpillars have been killed."}, "[3]": {"system": "larvae of the mustard beetle (Phaedon cochleariae)", "test": "Phaedon test (PHAECO spray treatment)", "conditions": "500 g/ha, spray, after 7 days", "experimental": "Phaedon Test ([…] Spray Treatment) Solvents: 78.0 parts by weight of acetone • • 1.5 parts by weight of dimethylformamide Emulsifier: 0.5 part by weight of alkylaryl polyglycol ether To produce a suitable preparation of active compound, 1 part by weight of active compound is mixed with the stated amounts of solvents and emulsifiers, and the concentrate is diluted with emulsifier-containing water to the desired concentration. Discs of Chinese cabbage leaves (Brassica pekinensis) are sprayed with an active compound preparation of the desired concentration and, after drying, populated with larvae of the mustard beetle (Phaedon cochleariae)."}, "[4]": {"system": "green peach aphid (Myzus persicae)", "test": "Myzus test (MYZUPE spray treatment)", "conditions": "500 g/ha, spray, after 6 days", "experimental": "Myzus Test (MYZUPE Spray Treatment) Solvents: 78 parts by weight of acetone • • 1.5 parts by weight of dimethylformamide Emulsifier: 0.5 part by weight of alkylaryl polyglycol ether\nas §3\nDiscs of Chinese cabbage leaves (Brassica pekinensis) which are infested by all stages of the green peach aphid (Myzus persicae) are sprayed with an active compound preparation of the desired concentration.\nAfter 6 days, the activity in % is determined. 100% means that all aphids have been killed; 0% means that none of the aphids have been killed."}, "[5]": {"system": "greenhouse red spider mite (Tetranychus urticae)", "test": "Tetranychus test; OP-resistant (TETRUR spray treatment)", "conditions": "500 g/ha, spray, after 6 days", "experimental": "Tetranychus Test; OP-Resistant (TETRUR Spray Treatment) Solvents: 78.0 parts by weight of acetone • • 1.5 parts by weight of dimethylformamide Emulsifier: 0.5 part by weight of alkylaryl polyglycol ether\nas §3\nDiscs of bean leaves (Phaseolus vulgaris) infested by all stages of the greenhouse red spider mite (Tetranychus urticae) are sprayed with an active compound preparation of the desired concentration.\nAfter 6 days, the activity in % is determined. 100% means that all spider mites have been killed; 0% means that none of the spider mites have been killed."}, "[6]": {"system": "cat fleas (Ctenocephalides felis, fully sensitive laboratory strain)", "test": "Contact test against fleas in-vitro (CTECFE contact)", "conditions": "500 g/ha, after 48 h", "experimental": "Contact Test Against Fleas In-Vitro (CTECFE Contact)\nAn amount of 0.9 mg of active compound is weighed out, and 1 ml of acetone is added.\nOf this acetone solution, either […] are transferred directly into roll-necked test tubes or an aliquot is diluted with 4 parts of acetone 1:5. For its part, 250 μl of this dilution are pipetted into roll-necked test tubes, or the dilution is diluted further, etc., until the desired number of dilution steps is reached.\nThe roll-necked test tubes containing the solution of the active compound in acetone are immediately coated in a fume cupboard by 2 h of swing rotation at 30 rpm. After evaporation of the solvent, the active compound contained in the acetone gives, at the highest concentration tested, an active compound content of 500 g/ha (or 500 μg/dm^2) on the surface of the test tube.\n10-20 Adult cat fleas (Ctenocephalides felis, fully sensitive laboratory strain) anesthetized with CO2 are transferred into the test tubes prepared in this manner, and the test tubes are closed with a plastic roll-necked lid provided with fine holes.\nThe test tubes are stored vertically at room temperature and humidity for 24 or 48 h. After 24 and 48 h, the activity of the active compound applied is determined by comparison with an acetone-treated control. Here, an observed normal activity for all fleas corresponds to 0% activity, a strongly restricted or uncoordinated (knock-down) movement or death of all fleas corresponds to 100% activity."}}}
{"smiles": "Cc1ccc(N=C2C(=CSc3ccc(F)cc3)COc3cccc(C)c32)cc1", "note": "[Example 1-86]", "values": [{"measurement": "knock-down activity", "setting": "Aedes aegypti", "value": 95, "unit": "%"}, {"measurement": "knock-down activity", "setting": "[1]", "value": 100, "unit": "%"}]}
{"smiles": "Cc1ccc(N=C2C(=CSc3ccc(F)cc3)CCc3ccccc32)c(C)c1", "note": "[Example 1-43]", "values": [{"measurement": "knock-down activity", "setting": "Aedes aegypti", "value": 100, "unit": "%"}, {"measurement": "knock-down activity", "setting": "[1]", "value": 100, "unit": "%"}, {"measurement": "activity (caterpillars killed)", "setting": "[2]", "value": 100, "unit": "%"}, {"measurement": "activity (beetle larvae killed)", "setting": "[3]", "value": 100, "unit": "%"}, {"measurement": "activity (aphids killed)", "setting": "[4]", "value": 90, "unit": "%"}, {"measurement": "activity (spider mites killed)", "setting": "[5]", "value": 80, "unit": "%"}]}
{"smiles": "Cc1cccc(N=C2C(=CSc3ccc(F)cc3)CCc3ccccc32)c1", "note": "[Example 1-88]", "values": [{"measurement": "knock-down activity", "setting": "Aedes aegypti", "value": 85, "unit": "%"}, {"measurement": "knock-down activity", "setting": "[1]", "value": 100, "unit": "%"}, {"measurement": "activity (caterpillars killed)", "setting": "[2]", "value": 100, "unit": "%"}, {"measurement": "activity (beetle larvae killed)", "setting": "[3]", "value": 100, "unit": "%"}, {"measurement": "activity (aphids killed)", "setting": "[4]", "value": 100, "unit": "%"}, {"measurement": "activity (spider mites killed)", "setting": "[5]", "value": 100, "unit": "%"}]}
{"smiles": "Cc1ccc(N=C2C(=CSc3ccc(F)cc3)CCc3ccccc32)cc1C", "note": "[Example 1-41]", "values": [{"measurement": "knock-down activity", "setting": "Aedes aegypti", "value": 95, "unit": "%"}, {"measurement": "knock-down activity", "setting": "[1]", "value": 100, "unit": "%"}, {"measurement": "activity (caterpillars killed)", "setting": "[2]", "value": 100, "unit": "%"}, {"measurement": "activity (beetle larvae killed)", "setting": "[3]", "value": 100, "unit": "%"}, {"measurement": "activity (aphids killed)", "setting": "[4]", "value": 90, "unit": "%"}, {"measurement": "activity (spider mites killed)", "setting": "[5]", "value": 80, "unit": "%"}]}
{"smiles": "Cc1ccc(N=C2C(=CSc3ccc(F)cc3)CCc3nc(Cl)ccc32)cc1", "note": "[Example 1-54]", "values": [{"measurement": "activity against cat fleas", "setting": "[6]", "value": 100, "unit": "%"}, {"measurement": "activity (caterpillars killed)", "setting": "[2]", "value": 100, "unit": "%"}, {"measurement": "activity (beetle larvae killed)", "setting": "[3]", "value": 100, "unit": "%"}, {"measurement": "activity (aphids killed)", "setting": "[4]", "value": 80, "unit": "%"}, {"measurement": "activity (spider mites killed)", "setting": "[5]", "value": 80, "unit": "%"}]}
{"smiles": "Cc1ccc(N=C2C(=CSc3ccccc3)COc3ccccc32)cc1", "note": "[Example 1-7]", "values": [{"measurement": "knock-down activity", "setting": "Aedes aegypti", "value": 85, "unit": "%"}, {"measurement": "knock-down activity", "setting": "[1]", "value": 100, "unit": "%"}, {"measurement": "activity against cat fleas", "setting": "[6]", "value": 100, "unit": "%"}, {"measurement": "activity (caterpillars killed)", "setting": "[2]", "value": 100, "unit": "%"}, {"measurement": "activity (beetle larvae killed)", "setting": "[3]", "value": 100, "unit": "%"}, {"measurement": "activity (aphids killed)", "setting": "[4]", "value": 100, "unit": "%"}, {"measurement": "activity (spider mites killed)", "setting": "[5]", "value": 100, "unit": "%"}]}
{"smiles": "Cc1ccc(N=C2C(=CSc3ccc(F)cc3)CCc3ccc(F)cc32)cc1", "note": "[Example 1-15]", "values": [{"measurement": "activity against cat fleas", "setting": "[6]", "value": 100, "unit": "%"}, {"measurement": "activity (caterpillars killed)", "setting": "[2]", "value": 100, "unit": "%"}, {"measurement": "activity (beetle larvae killed)", "setting": "[3]", "value": 100, "unit": "%"}, {"measurement": "activity (aphids killed)", "setting": "[4]", "value": 100, "unit": "%"}, {"measurement": "activity (spider mites killed)", "setting": "[5]", "value": 100, "unit": "%"}]}
{"smiles": "Cc1ccc(N=C2C(=CSc3ccccc3F)C3CCC2C3)cc1", "note": "(centres unmarked) [Example 1-103]", "values": [{"measurement": "knock-down activity", "setting": "Aedes aegypti", "value": 100, "unit": "%"}, {"measurement": "knock-down activity", "setting": "[1]", "value": 100, "unit": "%"}]}
{"smiles": "c1ccc(N=C2c3ccccc3CCC2C(Sc2ccccc2)Sc2ccccc2)cc1", "note": "(centres unmarked) [Example 2-2]", "values": [{"measurement": "knock-down activity", "setting": "Aedes aegypti", "value": 100, "unit": "%"}, {"measurement": "knock-down activity", "setting": "[1]", "value": 100, "unit": "%"}]}
{"smiles": "COc1ccc(N=C2C(=CSc3ccccc3)C(C)c3ccccc32)cc1", "note": "(mixture of isomers) [Example 1-22]", "values": [{"measurement": "activity against cat fleas", "setting": "[6]", "value": 100, "unit": "%"}, {"measurement": "activity (caterpillars killed)", "setting": "[2]", "value": 100, "unit": "%"}, {"measurement": "activity (spider mites killed)", "setting": "[5]", "value": 90, "unit": "%"}]}
{"smiles": "CCOC1=CC(=Nc2ccc(C)cc2)C(=CSc2ccc(F)cc2F)CC1", "note": "[Example 1-98, N-(6-{[(2,4-Difluorophenyl)sulphanyl]methylene}-3-ethoxycyclohex-2-en-1-ylidene)-4-methylaniline]", "values": [{"measurement": "mortality at 100 mg/m2", "setting": "Aedes aegypti; Aedes aegypti, read-out: activity (mortality in %)", "value": 80, "unit": "%"}, {"measurement": "pest or weed control at 500 g/ha", "setting": "[2]; Spodoptera frugiperda, 168 h, read-out: activity (caterpillars killed)", "value": 83, "unit": "%"}, {"measurement": "pest or weed control at 500 g/ha", "setting": "[5]; Tetranychus urticae, 144 h, read-out: activity (spider mites killed)", "value": 100, "unit": "%"}]}
